Measurements taken from patent publication US10005768B2, “Carboxamide derivatives and use thereof” (Purdue Pharma L.P., priority 2013, dated 2018).

Legend:
human Nav1.7 [1] = target: T1, human Nav1.7 (Homo sapiens (Human), UniProt Q15858); assay: FLIPR sodium dye assay (CoroNa Green AM Na+ dye, primary fluorescence assay); format: cell-based; conditions: recombinant Nav1.7/HEK293 cells
Outline: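 HEK293 cells stably expressing human Nav1.7 α subunit (no β/γ subunits), loaded with 5 μM CoroNa Green Na+ dye in HEPES-buffered Hanks-type saline, pH 7.3. Na+ influx stimulated by 100 μM veratridine plus 10 μg/mL Leiurus scorpion venom; compounds tested at 20 μM down to 0.001 μM (10 points, 0.2% DMSO).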

human Nav1.7 [2] = target: T1, human Nav1.7; assay: FLIPR membrane potential dye assay (alternative fluorescence assay); format: cell-based; conditions: recombinant Nav1.7/HEK293 cells
Experimental: In vitro assays were performed in a recombinant cell line expressing cDNA encoding the alpha subunit (Nav1.7, SCN9a, PN1, NE) of human Nav1.7 (Accession No. NM_002977). The cell line was provided by investigators at Yale University (Cummins et al, J. Neurosci. 18(23): 9607-9619 (1998)). For dominant selection of the Nav1.7-expressing clones, the expression plasmid co-expressed the neomycin resistance gene. The cell line was constructed in the human embryonic kidney cell line, HEK293, under the influence of the CMV […] promoter, and stable clones were selected using limiting dilution cloning and antibiotic selection using the neomycin analogue, G418. Recombinant beta and gamma subunits were not introduced into this cell line. Additional cell lines expressing recombinant Nav1.7 cloned from other species can also be used, alone or in combination with various beta subunits, gamma subunits or chaperones.
A fluorescence indicator that can be used in alternative fluorescence assays is the blue version membrane potential dye (MDS, Molecular Devices, Sunnyvale, Calif.), a dye that detects changes in molecules following a change in membrane potential. An increase in fluorescence is expected if agonist stimulation provokes a change in membrane potential. Cells expressing Nav1.7 or other sodium channels are incubated with the membrane potential dye 30-60 minutes before the fluorescence assay. In the case of the KCl pre-stimulation version of the assay, the dye and all other components are washed out immediately before the assay, and the dye is then replaced. In the version lacking KCl pre-stimulation, the dye remains on the cells and is not washed out or replaced. The dye is stored in the dark as a lyophilized powder, and then an aliquot dissolved in assay buffer to form a 20×-concentrated stock solution that can be used for several weeks.
In the fluorescence assays, two agonists were used in combination, namely 1) veratridine; and 2) the venom from the yellow scorpion, Leiurus quinquestriatus hebraeus. Veratridine is an alkaloid small molecule that facilitates the capture of channel openings by inhibiting inactivation, and the scorpion venom is a natural preparation that includes peptide toxins selective for different subsets of voltage-gated sodium channels. These scorpion toxins inhibit the fast inactivation of their cognate target channels. Stock solutions of the agonists were prepared to 40 mM in DMSO (veratridine) and 1 mg/mL in dH2O (scorpion venom), and then diluted to make a 4× or 2× stock (depending on the particular assay) in assay buffer, the final concentration being 100 μM (veratridine) and 10 μg/mL (scorpion venom). Both of the agonists were purchased from Sigma Aldrich, St. Louis, Mo.
Test compounds were dissolved in DMSO to yield 10 mM stock solutions. The stock solutions were further diluted using DMSO in 1:3 serial dilution steps with 10 points (10,000 μM, […], 370 μM, 123 μM, 41 μM, 14 μM, 4.6 μM, 1.5 μM and 0.5 μM). The stock solutions were further diluted in assay buffer (1:125) as 4× stock serial dilutions with a DMSO concentration of 0.8% (final [DMSO], in the assay, from the compounds component=0.2%), so that the compounds' final concentrations in the assay were 20 μM, 6.7 μM, 2.2 μM, 0.74 μM, 0.25 μM and 0.08 μM, 0.03 μM, 0.01 μM, 0.003 μM and 0.001 μM. If a particular test article appeared to be especially potent, then the concentration curve was adjusted, e.g., to 10-fold lower concentrations, in order to perform the dose-response in a more relevant concentration range. Compound dilutions were added during the dye-loading and pre-stimulation step, and then again during the fluorescence assay, early in the kinetic read.
The data were analyzed according to methods known to those skilled in the art or using the GraphPad® Prism Program, version 4.0 or higher (available from GraphPad Software, San Diego, Calif.) to determine the IC50 value for the test article. […]

T1 sequence (Q15858 other isoform, or with tags, fused parts or gaps): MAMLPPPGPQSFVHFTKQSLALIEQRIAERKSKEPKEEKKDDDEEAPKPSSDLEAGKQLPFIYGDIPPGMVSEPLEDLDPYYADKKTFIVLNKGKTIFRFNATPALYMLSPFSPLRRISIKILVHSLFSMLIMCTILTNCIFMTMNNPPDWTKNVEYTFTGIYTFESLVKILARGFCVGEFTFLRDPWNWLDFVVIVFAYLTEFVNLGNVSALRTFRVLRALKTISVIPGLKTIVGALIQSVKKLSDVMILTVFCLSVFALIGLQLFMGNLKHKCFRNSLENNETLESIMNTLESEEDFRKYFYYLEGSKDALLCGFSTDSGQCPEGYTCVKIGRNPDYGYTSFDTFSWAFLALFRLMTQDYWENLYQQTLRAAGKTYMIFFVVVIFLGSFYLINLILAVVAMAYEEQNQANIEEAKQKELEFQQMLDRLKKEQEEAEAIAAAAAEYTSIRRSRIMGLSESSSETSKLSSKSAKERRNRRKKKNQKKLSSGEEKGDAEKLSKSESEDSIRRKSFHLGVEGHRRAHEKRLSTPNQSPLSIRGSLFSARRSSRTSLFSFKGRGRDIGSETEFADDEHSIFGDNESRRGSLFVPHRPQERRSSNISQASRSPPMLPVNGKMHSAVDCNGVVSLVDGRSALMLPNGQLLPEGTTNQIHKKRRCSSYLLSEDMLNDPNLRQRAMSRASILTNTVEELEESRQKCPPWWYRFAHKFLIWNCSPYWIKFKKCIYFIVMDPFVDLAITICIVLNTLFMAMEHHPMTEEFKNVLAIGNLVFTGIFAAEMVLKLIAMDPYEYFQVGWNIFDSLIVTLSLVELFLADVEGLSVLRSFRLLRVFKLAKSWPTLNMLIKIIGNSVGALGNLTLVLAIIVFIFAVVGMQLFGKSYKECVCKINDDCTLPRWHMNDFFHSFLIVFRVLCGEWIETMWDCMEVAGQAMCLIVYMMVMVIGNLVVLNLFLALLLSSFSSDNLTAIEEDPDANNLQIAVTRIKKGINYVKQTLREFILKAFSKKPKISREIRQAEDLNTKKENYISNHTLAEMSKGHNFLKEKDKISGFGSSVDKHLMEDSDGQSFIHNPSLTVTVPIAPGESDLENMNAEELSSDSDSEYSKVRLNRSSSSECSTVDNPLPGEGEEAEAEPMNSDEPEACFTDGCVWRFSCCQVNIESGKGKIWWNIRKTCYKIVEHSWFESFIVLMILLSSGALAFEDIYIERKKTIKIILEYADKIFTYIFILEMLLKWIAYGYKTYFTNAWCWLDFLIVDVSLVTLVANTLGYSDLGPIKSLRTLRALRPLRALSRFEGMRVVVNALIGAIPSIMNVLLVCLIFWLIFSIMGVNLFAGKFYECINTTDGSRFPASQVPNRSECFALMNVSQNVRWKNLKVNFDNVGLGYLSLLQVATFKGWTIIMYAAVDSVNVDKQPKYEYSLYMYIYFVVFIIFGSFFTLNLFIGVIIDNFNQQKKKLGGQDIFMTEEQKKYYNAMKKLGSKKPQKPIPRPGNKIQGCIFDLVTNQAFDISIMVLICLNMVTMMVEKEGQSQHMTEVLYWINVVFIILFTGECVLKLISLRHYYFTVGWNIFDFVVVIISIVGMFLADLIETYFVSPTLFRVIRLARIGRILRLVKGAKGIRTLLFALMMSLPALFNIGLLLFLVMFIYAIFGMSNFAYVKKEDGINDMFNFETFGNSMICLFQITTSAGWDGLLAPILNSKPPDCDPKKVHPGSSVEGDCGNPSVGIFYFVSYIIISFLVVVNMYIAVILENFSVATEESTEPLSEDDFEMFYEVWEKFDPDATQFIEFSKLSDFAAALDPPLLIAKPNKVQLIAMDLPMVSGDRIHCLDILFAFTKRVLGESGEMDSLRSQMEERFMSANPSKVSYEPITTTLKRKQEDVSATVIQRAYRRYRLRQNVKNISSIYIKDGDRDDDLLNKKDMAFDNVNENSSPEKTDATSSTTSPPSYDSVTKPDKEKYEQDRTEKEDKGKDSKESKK

Compound | IC50 (human Nav1.7 [1]) | IC50 (human Nav1.7 [2])
NC(=O)c1cccc(-c2ccc(Oc3ccc(C(F)(F)F)cc3CN3CCCC(C(N)=O)C3)cc2)n1 (stereo not shown) [compound 121, 6-(4-(2-((3-carbamoylpiperidin-1-yl)methyl)-4-(trifluoromethyl)phenoxy)phenyl) picolinamide] | 0.716 ± 0.09 µM | 
Cn1nccc1-c1cc(C(F)(F)F)ccc1Oc1ccc(-c2nc(C(N)=O)cc([C@H](O)CO)n2)cc1 [compound 122, (S)-6-(1,2-dihydroxyethyl)-2-(4-(2-(1-methyl-1H-pyrazol-5-yl)-4-(trifluoromethyl)phenoxy)phenyl) pyrimidine-4-carboxamide] |  | 0.079 ± 0.015 µM
Cn1nccc1-c1cc(C(F)(F)F)ccc1Oc1ccc(-c2cccc(C(N)=O)n2)cc1 [compound 123, 6-(4-(2-(1-methyl-1H-pyrazol-5-yl)-4-(trifluoromethyl)phenoxy)phenyl) picolinamide] |  | 0.149 ± 0.056 µM
CCN(CC)Cc1cc(C(F)(F)F)ccc1Oc1ccc(-c2nc(CCOC(C)=O)cc(C(N)=O)n2)cc1 [compound 124, 2-(6-carbmoyl-2-(4-(2-((diethylamino)methyl)-4-(trifluoromethyl)phenoxy)phenyl)pyrimidin-4-yl)ethyl acetate] |  | 0.367 ± 0.028 µM
Cn1nccc1-c1cc(C(F)(F)F)ccc1Oc1ccc(-c2nccc(C(N)=O)n2)cc1 [compound 125, 2-(4-(2-(1-methyl-1H-pyrazol-5-yl)-4-(trifluoromethyl)phenoxy)phenyl) pyrimidine-4-carboxamide] |  | 0.311 ± 0.006 µM
Cn1nccc1-c1cc(C(F)(F)F)ccc1Oc1ccc(-c2nc(N[C@H]3CCNC3=O)cc(C(N)=O)n2)cc1 [compound 126, (S)-2-(4-(2-(1-methyl-1H-pyrazol-5-yl)-4-(trifluoromethyl)phenoxy)phenyl)-6-((2-oxopyrrolidin-3-yl)amino)pyrimidine-4-carboxamide] |  | 0.288 ± 0.045 µM
NC(=O)c1cc(CCn2ccnc2)nc(-c2ccc(Oc3ccc(C(F)(F)F)cc3CN3CCOCC3)cc2)n1 [compound 127, 6-(2-(1H-imidazol-1-yl)ethyl)-2-(4-(2-(morpholinomethyl)-4-(trifluoromethyl)phenoxy)phenyl) pyrimidine-4-carboxamide] |  | 0.486 ± 0.032 µM
CN(C)c1ncc(-c2cc(C(F)(F)F)ccc2Oc2ccc(-c3nc(N[C@H]4CCNC4=O)cc(C(N)=O)n3)cc2)cn1 [compound 128, (S)-2-(4-(2-(2-(dimethylamino)pyrimidin-5-yl)-4-(trifluoromethyl)phenoxy)phenyl)-6-((2-oxopyrrolidin-3-yl)amino)pyrimidine-4-carboxamide] |  | 0.684 ± 0.034 µM
CN(C)c1cnc(-c2cc(C(F)(F)F)ccc2Oc2ccc(-c3nc(N[C@H]4CCNC4=O)cc(C(N)=O)n3)cc2)cn1 [compound 129, (S)-2-(4-(2-(5-(dimethylamino)pyrazin-2-yl)-4-(trifluoromethyl)phenoxy)phenyl)-6-((2-oxopyrrolidin-3-yl)amino)pyrimidine-4-carboxamide] |  | 0.702 ± 0.035 µM
CCN(CC)Cc1cc(C(F)(F)F)ccc1Oc1ccc(-c2nc(C(N)=O)cc([C@H](O)CO)n2)cc1 [compound 130, (S)-2-(4-(2-((diethylamino)methyl)-4-(trifluoromethyl)phenoxy)phenyl)-6-(1,2-dihydroxyethyl)pyrimidine-4-carboxamide] |  | 1.28 ± 0.135 µM
CCN(CC)Cc1cc(C(F)(F)F)ccc1Oc1ccc(-c2nc(C(N)=O)cc(C(=O)O)n2)cc1 [compound 131, 6-carbamoyl-2-(4-(2-((diethylamino)methyl)-4-(trifluoromethyl)phenoxy)phenyl) pyrimidine-4-carboxylic acid] |  | > 20 µM
NC(=O)c1cc(C(=O)O)nc(-c2ccc(Oc3ccc(C(F)(F)F)cc3CN3CCOCC3)cc2)n1 [compound 132, 6-carbamoyl-2-(4-(2-(morpholinomethyl)-4-(trifluoromethyl)phenoxy)phenyl) pyrimidine-4-carboxylic acid] |  | 9.8 ± 0.365 µM
COC(=O)c1cccc(-c2ccc(Oc3ccc(C(F)(F)F)cc3C(O)C#N)cc2)n1 (stereo not shown) [compound 144, methyl 6-(4-(2-(cyano(hydroxy)methyl)-4-(trifluoromethyl)phenoxy)phenyl) picolinate] | 3.79 ± 0.377 µM | 
N#CC(N)c1cc(C(F)(F)F)ccc1Oc1ccc(-c2cccc(C(N)=O)n2)cc1 (stereo not shown) [compound 145, 6-(4-(2-(amino(cyano)methyl)-4-(trifluoromethyl)phenoxy)phenyl) picolinamide] | 3.34 ± 0.452 µM | 
NC(=O)c1cccc(-c2ccc(Oc3ccc(C(F)(F)F)cc3/C=C3\SC(=O)NC3=O)cc2)n1 [compound 155, (Z)-6-(4-(2-((2,4-dioxothiazolidin-5-ylidene)methyl)-4-(trifluoromethyl)phenoxy)phenyl) picolinamide] | > 20 µM | 
OC[C@@H](O)c1cccc(-c2ccc(Oc3ccc(F)cc3C(O)C(F)(F)F)cc2)n1 (stereo partly drawn) [compound 156, (1S)-1-(6-(4-(4-fluoro-2-(2,2,2-trifluoro-1-hydroxyethyl)-phenoxy)phenyl)pyridin-2-yl)ethane-1,2-diol] | 1.29 ± 0.182 µM | 
NC(=O)c1cccc(-c2ccc(Oc3ccc(C(F)(F)F)cc3C(=O)C(=O)N3CCCC3)cc2)n1 [compound 157, 6-(4-(2-(2-oxo-2-(pyrrolidin-1-yl)acetyl)-4-(trifluoromethyl)-phenoxy)phenyl)picolinamide] | 2.71 ± 0.235 µM | 
NC(=O)c1cccc(-c2ccc(Oc3ccc(C(F)(F)F)cc3C(O)C(=O)N3CCCC3)cc2)n1 (stereo not shown) [compound 158, 6-(4-(2-(1-hydroxy-2-oxo-2-(pyrrolidin-1-yl)ethyl)-4-(trifluoromethyl)phenoxy)phenyl) picolinamide] | 0.214 ± 0.029 µM | 
NC(=O)c1cccc(-c2ccc(Oc3ccc(C(F)(F)F)cc3C(=O)O)cc2)n1 [compound 159, 2-(4-(6-carbamoylpyridin-2-yl)phenoxy)-5-(trifluoro-methyl)benzoic acid] | 1.26 ± 0.135 µM | 
NC(=O)c1cccc(-c2ccc(Oc3ccc(C(F)(F)F)cc3C(=O)N3CCCC3)cc2)n1 [compound 160, 6-(4-(2-(pyrrolidine-1-carbonyl)-4-(trifluoromethyl)phenoxy)phenyl)picolinamide] | 2.85 ± 0.698 µM | 
CN(CCO)C(=O)c1cc(C(F)(F)F)ccc1Oc1ccc(-c2cccc(C(N)=O)n2)cc1 [compound 161, 6-(4-(2-((2-hydroxyethyl)-(methyl)carbamoyl)-4-(trifluoromethyl)phenoxy)phenyl) picolinamide] | > 20 µM | 
CN1CCN(C(=O)c2cc(C(F)(F)F)ccc2Oc2ccc(-c3cccc(C(N)=O)n3)cc2)CC1 [compound 162, 6-(4-(2-(4-methylpiperazine-1-carbonyl)-4-(trifluoromethyl)phenoxy)phenyl)picolinamide] | 7.95 ± 0.402 µM | 
CNC(=O)c1cc(C(F)(F)F)ccc1Oc1ccc(-c2cccc(C(N)=O)n2)cc1 [compound 163, 6-(4-(2-(methylcarbamoyl)-4-(trifluoromethyl)phenoxy)phenyl) picolinamide] | > 20 µM | 
CCN(CC)C(=O)c1cc(C(F)(F)F)ccc1Oc1ccc(-c2cccc(C(N)=O)n2)cc1 [compound 164, 6-(4-(2-(diethylcarbamoyl)-4-(trifluoromethyl)phenoxy)phenyl) picolinamide] | 0.143 ± 0.023 µM | 
NC(=O)c1cccc(-c2ccc(Oc3ccc(C(F)(F)F)cc3C(=O)N3CCNC(=O)C3)cc2)n1 [compound 165, 6-(4-(2-(3-oxopiperazine-1-carbonyl)-4-(trifluoromethyl)-phenoxy)phenyl)picolinamide] | > 20 µM | 
